Laboratory results as given in ChEMBL document CHEMBL1138216, “Design and synthesis of novel derivatives of the muscarinic agonist tetra(ethylene glycol)(3-methoxy-1,2,5-thiadiazol-4-yl) [3-(1-methyl-1,2,5,6-tetrahydropyrid-3-yl)-1,2,5-thiadiazol-4-yl] ether (CDD-0304): effects of structural modifications on the binding and activity at muscarinic receptor …” (J Med Chem, 2006).

What was measured:
[1] = molecular target: T1, Muscarinic acetylcholine receptor M4 (Homo sapiens, UniProt P08173); assay: Activity at human M4 receptor assessed as inhibition of forskolin-stimulated cAMP accumulation; type: functional
T1 sequence (P08173 whole entry): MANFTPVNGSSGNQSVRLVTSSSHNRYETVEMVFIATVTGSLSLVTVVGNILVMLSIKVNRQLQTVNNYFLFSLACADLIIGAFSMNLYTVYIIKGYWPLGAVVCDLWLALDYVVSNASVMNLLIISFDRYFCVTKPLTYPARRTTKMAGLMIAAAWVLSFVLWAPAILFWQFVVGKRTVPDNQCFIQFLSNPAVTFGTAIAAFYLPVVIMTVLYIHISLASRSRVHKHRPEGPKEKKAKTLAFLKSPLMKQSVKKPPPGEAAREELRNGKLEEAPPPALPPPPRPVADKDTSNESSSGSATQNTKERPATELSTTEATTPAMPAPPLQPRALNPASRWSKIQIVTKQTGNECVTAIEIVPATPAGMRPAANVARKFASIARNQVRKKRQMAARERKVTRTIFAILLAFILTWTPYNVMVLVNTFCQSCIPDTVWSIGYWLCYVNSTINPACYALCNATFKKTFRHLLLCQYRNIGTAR

[2] = molecular target: T2, Muscarinic acetylcholine receptor M1/M5 chimeric protein (Homo sapiens, UniProt P08912+P11229); assay: Inhibition of [3H](R)-QNB binding to human M1/M5(o2) chimeric receptor expressed in A9 L cells; type: cell-based, A9L
T2 sequence (P11229 whole entry): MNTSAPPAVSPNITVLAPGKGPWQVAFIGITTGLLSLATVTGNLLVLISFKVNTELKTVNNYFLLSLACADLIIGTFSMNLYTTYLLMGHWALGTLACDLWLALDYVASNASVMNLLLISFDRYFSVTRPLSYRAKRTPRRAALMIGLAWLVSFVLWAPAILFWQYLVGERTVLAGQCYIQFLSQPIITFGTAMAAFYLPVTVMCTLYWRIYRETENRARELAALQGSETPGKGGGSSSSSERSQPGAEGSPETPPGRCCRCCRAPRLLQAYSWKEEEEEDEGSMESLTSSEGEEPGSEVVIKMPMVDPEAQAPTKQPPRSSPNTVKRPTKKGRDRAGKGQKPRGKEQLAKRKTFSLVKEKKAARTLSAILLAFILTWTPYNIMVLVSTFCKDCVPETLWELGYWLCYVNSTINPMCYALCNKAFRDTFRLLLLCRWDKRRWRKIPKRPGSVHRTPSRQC
T2 sequence (P08912 whole entry): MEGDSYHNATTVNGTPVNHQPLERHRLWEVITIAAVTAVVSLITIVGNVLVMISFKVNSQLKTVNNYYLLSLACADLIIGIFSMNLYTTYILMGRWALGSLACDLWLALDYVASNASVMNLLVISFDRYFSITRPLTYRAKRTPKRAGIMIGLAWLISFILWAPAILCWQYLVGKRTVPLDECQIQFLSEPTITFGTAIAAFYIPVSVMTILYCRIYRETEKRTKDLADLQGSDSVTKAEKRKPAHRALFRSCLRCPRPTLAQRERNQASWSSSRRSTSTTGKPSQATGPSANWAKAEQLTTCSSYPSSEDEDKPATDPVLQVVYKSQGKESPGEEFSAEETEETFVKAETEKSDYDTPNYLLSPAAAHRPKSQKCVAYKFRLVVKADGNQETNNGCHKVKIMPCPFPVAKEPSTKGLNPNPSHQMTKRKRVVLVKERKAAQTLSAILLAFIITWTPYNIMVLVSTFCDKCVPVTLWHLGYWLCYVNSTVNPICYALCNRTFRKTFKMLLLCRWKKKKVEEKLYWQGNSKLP

[3] = molecular target: T2, Muscarinic acetylcholine receptor M1/M5 chimeric protein; assay: Agonist activity at human M1/M5(o2) chimeric receptor expressed in A9 L cells assessed as stimulation of phosphoinositide hydrolysis; type: functional, cell-based, L929
[4] = molecular target: Muscarinic acetylcholine receptor M1 (Homo sapiens, UniProt P11229, E170K); type: functional, cell-based, L929
Muscarinic acetylcholine receptor M1, sequence (P11229 whole entry E170K): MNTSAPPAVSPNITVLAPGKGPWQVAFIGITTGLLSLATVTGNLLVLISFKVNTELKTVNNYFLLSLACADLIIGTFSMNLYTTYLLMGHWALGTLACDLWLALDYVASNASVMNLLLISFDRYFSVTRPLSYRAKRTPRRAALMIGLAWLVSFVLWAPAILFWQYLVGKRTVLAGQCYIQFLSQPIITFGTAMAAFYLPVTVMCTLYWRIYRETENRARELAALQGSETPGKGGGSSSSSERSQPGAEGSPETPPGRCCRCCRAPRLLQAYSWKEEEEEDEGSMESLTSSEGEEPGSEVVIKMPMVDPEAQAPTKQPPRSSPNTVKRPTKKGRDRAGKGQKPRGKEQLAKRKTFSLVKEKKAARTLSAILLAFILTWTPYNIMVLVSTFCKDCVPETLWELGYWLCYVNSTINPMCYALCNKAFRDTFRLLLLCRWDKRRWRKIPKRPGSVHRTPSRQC

COc1nsnc1OCCOCCOCCOCCOc1nsnc1C1=CCCN(C)C1
IC50 [1]: 12.6 nM
Ki [2]: 200 nM
EC50 [3]: 79.4 nM
EC50 [4]: 2000 nM
